Laboratory results reported in patent US10945992B1, “Dosage forms of rofecoxib and related methods” (Tremeau Pharmaceuticals, Inc., priority 2019, dated 2021).
Like-named read-outs stand apart in the source and are kept apart here.

Test: TRM-201-PK-102 single-dose four-period crossover pharmacokinetic study, fasted healthy subjects
Format: in vivo, human
Conditions: human, plasma, oral
Protocol: A Single-Dose, Open-Label, Phase 1, Four-Period Crossover Pharmacokinetic Study of TRM-201 (Rofecoxib) 12.5 mg, 17.5 mg, 20 mg and 25 mg Administered to Healthy Subjects in a Fasting State, with Comparison to Historical Pharmacokinetic Parameters of Previously Marketed Rofecoxib (“TRM-201-PK-102” or “102 PK Study”)
This was a single-center, open-label four-period crossover PK study of TRM-201. The study included 24 subjects who received TRM-201 as a single dose of 12.5 mg, 17.5 mg, 20 mg and 25 mg to assess the PK of TRM-201 in healthy volunteers under fasted conditions. Subjects were randomized to one of four treatment sequences. The PK data from the current study along with the data from the TRM-201-PK-101 study (Example 4) was used to compare to historical pharmacokinetic parameters of previously marketed rofecoxib, all in a fasted state.
In each of the four dosing periods, subjects fasted overnight for at least 10 hours before study drug dosing. While fasting, subjects had nothing to eat and only water to drink. Water was permitted as desired, except for the period between 1 hour before and 1 hour after study drug dosing (excepting as permitted for dosing). After the 2-hour PK blood sample, subjects were allowed one 250-mL cup of clear apple juice. After the 4-hour PK blood sample, subjects were served a light lunch. Following the light lunch, subjects received standardized meals according to the clinic's standard procedures that were scheduled at consistent times and at least 15 minutes before or 15 minutes after PK sampling time points. Blood was withdrawn for PK analysis at predefined time points. For each dosing period the last time point was 120 hours after dosing with study drug (Day 6). After the 120 hour PK sample, the EOP procedures was completed, subjects remained in-clinic for the in-between dose period day (Days 7, 14, and 21) and began the next dosing period starting with an overnight fast for at least 10 hours on Day −1 of the subsequent dosing period. Pharmacokinetic and safety endpoints were evaluated.
The study drug, TRM-201, was an immediate-release tablet that contained 12.5 mg rofecoxib, 17.5 mg rofecoxib, 20 mg rofecoxib or 25 mg rofecoxib. The 7.25-mm diameter tablets were off-white, round, and uncoated with no markings. TRM-201 tablets were for oral administration.
For each sample, approximately 3 mL of blood were drawn. The samples were obtained by a straight stick or via an in-dwelling intravenous (IV) catheter in a forearm vein. Additional details for the collection, processing, storage, and shipping of PK samples were provided in the study manual.
Pharmacokinetic samples will be analyzed using a validated assay for rofecoxib in human plasma. Assay results and validation details will be provided in a separate bioanalytical report. The following PK parameters for rofecoxib will be calculated as primary endpoints using standard noncompartmental methods: AUC0-∞ and Cmax. Secondary endpoints include Tmax, and t1/2. Additional PK parameters (e.g., CL/F, and Vd/F) will also be calculated using standard noncompartmental methods.
Individual plasma concentrations for rofecoxib and PK sampling time deviation data will be presented in a data listing. Plasma concentration data will be summarized by time point using the following descriptive statistics: number of subjects, arithmetic mean, SD, coefficient of variation (CV), geometric mean, natural-log-scale SD, geometric CV, median, minimum, and maximum. Individual plasma concentration versus actual time profiles were presented on both linear and semilogarithmic scales. Additionally, arithmetic mean concentration versus scheduled time profiles were presented on linear scales and geometric means on semilogarithmic scales.
The PK parameters of rofecoxib were analyzed based on the actual sampling times. […]

[1] = 12.5 mg, read-out: arithmetic mean plasma concentration
[2] = 12.5 mg, read-out: geometric mean plasma concentration
[3] = 17.5 mg, read-out: geometric mean plasma concentration

Q: Which Cmax (12.5 mg, 102 study, body weight 77.1-90 kg, read-out: arithmetic mean Cmax) does the source give for CS(=O)(=O)c1ccc(C2=C(c3ccccc3)C(=O)OC2)cc1 [TRM-201, 4-[4-(methylsulfonyl)phenyl]-3-phenyl-2(5H)-furanone] here?
A: 127 ng/mL

Q: And the AUC(0-inf) (12.5 mg, 102 study, body weight 77.1-90 kg, read-out: geometric mean AUC0-∞)?
A: 1690 ng·h/mL

Q: What about the Cmax (12.5 mg, 102 study, body weight 77.1-90 kg, read-out: geometric mean Cmax) of the same compound?
A: 125 ng/mL

Q: What about the AUC(0-inf) (12.5 mg, 102 study, non-Hispanic or non-Latino subjects, read-out: arithmetic mean AUC0-∞) of the same compound?
A: 1820 ng·h/mL

Q: What about the Cmax (12.5 mg, 102 study, non-Hispanic or non-Latino subjects, read-out: arithmetic mean Cmax) of the same compound?
A: 146 ng/mL

Q: What about the AUC(0-inf) (12.5 mg, 102 study, non-Hispanic or non-Latino subjects, read-out: geometric mean AUC0-∞) of the same compound?
A: 1680 ng·h/mL

Q: And the Cmax (12.5 mg, 102 study, non-Hispanic or non-Latino subjects, read-out: geometric mean Cmax)?
A: 141 ng/mL

Q: And the concentration at 15 minutes [1]?
A: 1.03 ng/mL

Q: And the concentration at 15 minutes [2]?
A: 0.529 ng/mL

Q: And the concentration at 45 minutes [1]?
A: 56.8 ng/mL

Q: What about the concentration at 45 minutes [2] of the same compound?
A: 33.9 ng/mL

Q: What about the AUC(0-inf) (17.5 mg, 102 study only, read-out: arithmetic mean AUC0-∞) of the same compound?
A: 3290 ng·h/mL

Q: And the Cmax (17.5 mg, 102 study only, read-out: arithmetic mean Cmax)?
A: 236 ng/mL

Q: What about the AUC(0-inf) (17.5 mg, 102 study only, read-out: geometric mean AUC0-∞) of the same compound?
A: 3110 ng·h/mL

Q: And the Cmax (17.5 mg, 102 study only, read-out: geometric mean Cmax)?
A: 224 ng/mL

Q: What about the AUC(0-inf) (17.5 mg, 102 study, 18-40 years, read-out: arithmetic mean AUC0-∞) of the same compound?
A: 2820 ng·h/mL

Q: And the Cmax (17.5 mg, 102 study, 18-40 years, read-out: arithmetic mean Cmax)?
A: 237 ng/mL

Q: And the AUC(0-inf) (17.5 mg, 102 study, 18-40 years, read-out: geometric mean AUC0-∞)?
A: 2750 ng·h/mL

Q: And the Cmax (17.5 mg, 102 study, 18-40 years, read-out: geometric mean Cmax)?
A: 229 ng/mL

Q: And the AUC(0-inf) (17.5 mg, 102 study, 41-52 years, read-out: arithmetic mean AUC0-∞)?
A: 3520 ng·h/mL

Q: And the Cmax (17.5 mg, 102 study, 41-52 years, read-out: arithmetic mean Cmax)?
A: 232 ng/mL

Q: What about the AUC(0-inf) (17.5 mg, 102 study, 41-52 years, read-out: geometric mean AUC0-∞) of the same compound?
A: 3160 ng·h/mL

Q: What about the Cmax (17.5 mg, 102 study, 41-52 years, read-out: geometric mean Cmax) of the same compound?
A: 213 ng/mL

Q: What about the AUC(0-inf) (17.5 mg, 102 study, 53-60 years, read-out: arithmetic mean AUC0-∞) of the same compound?
A: 3510 ng·h/mL

Q: What about the Cmax (17.5 mg, 102 study, 53-60 years, read-out: arithmetic mean Cmax) of the same compound?
A: 239 ng/mL

Q: And the AUC(0-inf) (17.5 mg, 102 study, 53-60 years, read-out: geometric mean AUC0-∞)?
A: 3470 ng·h/mL

Q: And the Cmax (17.5 mg, 102 study, 53-60 years, read-out: geometric mean Cmax)?
A: 230 ng/mL

Q: And the AUC(0-inf) (17.5 mg, 102 study, Black or African-American subjects, read-out: arithmetic mean AUC0-∞)?
A: 2840 ng·h/mL

Q: What about the Cmax (17.5 mg, 102 study, Black or African-American subjects, read-out: arithmetic mean Cmax) of the same compound?
A: 217 ng/mL

Q: What about the AUC(0-inf) (17.5 mg, 102 study, Black or African-American subjects, read-out: geometric mean AUC0-∞) of the same compound?
A: 2800 ng·h/mL

Q: What about the Cmax (17.5 mg, 102 study, Black or African-American subjects, read-out: geometric mean Cmax) of the same compound?
A: 211 ng/mL

Q: And the AUC(0-inf) (17.5 mg, 102 study, Hispanic or Latino subjects, read-out: arithmetic mean AUC0-∞)?
A: 3520 ng·h/mL

Q: What about the Cmax (17.5 mg, 102 study, Hispanic or Latino subjects, read-out: arithmetic mean Cmax) of the same compound?
A: 258 ng/mL

Q: And the AUC(0-inf) (17.5 mg, 102 study, Hispanic or Latino subjects, read-out: geometric mean AUC0-∞)?
A: 3330 ng·h/mL

Q: What about the Cmax (17.5 mg, 102 study, Hispanic or Latino subjects, read-out: geometric mean Cmax) of the same compound?
A: 243 ng/mL

Q: What about the AUC(0-inf) (17.5 mg, 102 study, White subjects, read-out: arithmetic mean AUC0-∞) of the same compound?
A: 3400 ng·h/mL

Q: And the Cmax (17.5 mg, 102 study, White subjects, read-out: arithmetic mean Cmax)?
A: 241 ng/mL

Q: What about the AUC(0-inf) (17.5 mg, 102 study, White subjects, read-out: geometric mean AUC0-∞) of the same compound?
A: 3200 ng·h/mL

Q: And the Cmax (17.5 mg, 102 study, White subjects, read-out: geometric mean Cmax)?
A: 228 ng/mL

Q: And the AUC(0-inf) (17.5 mg, 102 study, body weight 47-70 kg, read-out: arithmetic mean AUC0-∞)?
A: 3180 ng·h/mL

Q: And the Cmax (17.5 mg, 102 study, body weight 47-70 kg, read-out: arithmetic mean Cmax)?
A: 261 ng/mL

Q: And the AUC(0-inf) (17.5 mg, 102 study, body weight 47-70 kg, read-out: geometric mean AUC0-∞)?
A: 2930 ng·h/mL

Q: What about the Cmax (17.5 mg, 102 study, body weight 47-70 kg, read-out: geometric mean Cmax) of the same compound?
A: 242 ng/mL

Q: What about the AUC(0-inf) (17.5 mg, 102 study, body weight 70.1-77 kg, read-out: arithmetic mean AUC0-∞) of the same compound?
A: 3890 ng·h/mL

Q: What about the Cmax (17.5 mg, 102 study, body weight 70.1-77 kg, read-out: arithmetic mean Cmax) of the same compound?
A: 254 ng/mL

Q: What about the AUC(0-inf) (17.5 mg, 102 study, body weight 70.1-77 kg, read-out: geometric mean AUC0-∞) of the same compound?
A: 3730 ng·h/mL

Q: What about the Cmax (17.5 mg, 102 study, body weight 70.1-77 kg, read-out: geometric mean Cmax) of the same compound?
A: 246 ng/mL

Q: What about the AUC(0-inf) (17.5 mg, 102 study, body weight 77.1-90 kg, read-out: arithmetic mean AUC0-∞) of the same compound?
A: 2910 ng·h/mL

Q: And the Cmax (17.5 mg, 102 study, body weight 77.1-90 kg, read-out: arithmetic mean Cmax)?
A: 200 ng/mL

Q: And the AUC(0-inf) (17.5 mg, 102 study, body weight 77.1-90 kg, read-out: geometric mean AUC0-∞)?
A: 2850 ng·h/mL

Q: What about the Cmax (17.5 mg, 102 study, body weight 77.1-90 kg, read-out: geometric mean Cmax) of the same compound?
A: 194 ng/mL

Q: What about the AUC(0-inf) (17.5 mg, 102 study, non-Hispanic or non-Latino subjects, read-out: arithmetic mean AUC0-∞) of the same compound?
A: 3050 ng·h/mL

Q: And the Cmax (17.5 mg, 102 study, non-Hispanic or non-Latino subjects, read-out: arithmetic mean Cmax)?
A: 214 ng/mL

Q: What about the AUC(0-inf) (17.5 mg, 102 study, non-Hispanic or non-Latino subjects, read-out: geometric mean AUC0-∞) of the same compound?
A: 2910 ng·h/mL

Q: And the Cmax (17.5 mg, 102 study, non-Hispanic or non-Latino subjects, read-out: geometric mean Cmax)?
A: 207 ng/mL

Q: And the concentration at 15 minutes [3]?
A: 0.669 ng/mL

Q: What about the concentration at 45 minutes [3] of the same compound?
A: 51.6 ng/mL
